The values below come from US8410107B2, “N-pyridin-3-yl or N-pyrazin-2-yl carboxamides” (Hoffmann-La Roche Inc., priority 2010, dated 2013).

Assay [1] relates to ABCA1 protein. The experiment in a line: Detection of upregulation of ABCA1 protein in cells (ApoA-I binding, high content image analysis). It counts as cell-based. As to conditions: THP-1 macrophage cells; for % increase of ABCA1 at 3 μM: 24 hrs with compound; for pEC50: ABCA1 protein increasing efficacy. The protocol: The ability of compounds of the invention to increase the level of ABCA1 protein is determined in replicate cultures of THP-1 macrophage cells in 96-well microplates. Cells are plated at an initial density of 100,000 cells/well in 100 μl medium and differentiated to adherent macrophages with the addition of PMA (100 nM) for 68 hrs in 10% fetal bovine serum, 3 μl/L of b-mercaptoethanol, RPMI-1640 medium. Then, cells are incubated with RPMI-1640 medium containing 1% FCS, 25 μg/ml acetylated LDL, for 24 hours at 37°. Following incubation with acetylated LDL, cells are washed twice with 50 μl PBS and incubated with 100 μl of RPMI-1640 medium containing the compound of interest solubilized in DMSO for an additional 24 hrs. The final DMSO concentration in presence of cells is maintained at 0.5%. ApoA-I binding assay using High Content Image Analysis is initiated by replacing with fresh medium, RPMI without Phenol Red, 0.2% BSA containing AlexaFluor®647 labeled ApoA-I for 2 h/37° C./5% CO2. Then, cells are fixed with 4% Formaldehyde inPBS (15 min, RT). Following Nuclei are stained with Hoechst solution (3 μM PBS) and Cytoplasm with Cell Mask Blue (2 μg/ml PBS), 15 min, RT. Finally the stained cells are fixed with a second round of formaldehyde treatment. Fixed stained cells are washed and kept in PBS at 4° C. and can be read immediately until one month after preparation.
The Alexa Fluor 647-labeled Apolipoprotein A-I (20 nM) was prepared as follows: Human recombinant Apolipoprotein A-I (ApoA-I) was exchanged to a buffer of 0.02 M NaHCO3 at pH 8.2 on an NAP desalting column (GE Healthcare) and brought to a concentration to 40 μM (1.13 mg/ml) by adjustment with the same buffer. The ApoA-I was fluorescently labeled by incubation with Alexa Fluor carboxylic acid succimidyl ester. (Alexa Fluor 647, Invitrogen A-20006) at a 2:1 molar ratio (Alexa to ApoA-I) for 1 h under shaking at RT. The remaining unconjugated label was removed by buffer exchange to 0.02M NaHCO3 at pH 8.2.
Imaging and data collection were performed on an OPERA confocal microplate imaging reader using a 20× water immersion objective and UV360 or 405 laser to identify the cell nuclei and a 635 laser to identify the fluorescent ApoA-I. Eight fields of view are captured per well. Image capture and analysis was performed with the Acapella software. Background fluorescence detected in control wells without ApoA-I was subtracted.
Using XLfit3 program (ID Business Solutions Ltd. UK), the model 205 for Dose Response One Site is used to calculate the EC50 values. The compounds of the present invention increase the level of ABCA1 protein by more than 45% at a concentration of 3 μM. […] Even more preferably, the compounds of the present invention have EC50 values in a range of 0.1 μM to 3 μM.

For assay [2], the target named is T1, human CB1 receptor (Homo sapiens, UniProt P21554).
T1 construct: expressed in transfected cells; host or cells: human embryonic kidney (HEK) cells, Semliki Forest Virus system, membrane preparations
T1 sequence (P21554 whole entry): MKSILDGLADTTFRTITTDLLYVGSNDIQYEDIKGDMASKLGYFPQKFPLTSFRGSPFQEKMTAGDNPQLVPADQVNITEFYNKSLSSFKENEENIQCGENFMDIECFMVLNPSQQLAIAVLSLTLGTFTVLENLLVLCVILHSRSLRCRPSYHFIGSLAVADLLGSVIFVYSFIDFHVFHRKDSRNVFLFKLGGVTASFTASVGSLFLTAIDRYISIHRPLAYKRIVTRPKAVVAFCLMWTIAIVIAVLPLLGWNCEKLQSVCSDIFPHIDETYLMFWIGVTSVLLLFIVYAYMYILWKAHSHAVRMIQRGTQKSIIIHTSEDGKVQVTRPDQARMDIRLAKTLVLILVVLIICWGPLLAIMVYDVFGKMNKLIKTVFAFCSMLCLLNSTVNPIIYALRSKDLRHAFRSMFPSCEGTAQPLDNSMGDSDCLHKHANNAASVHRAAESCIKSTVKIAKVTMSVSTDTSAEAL
The experiment in a line: CB1 receptor affinity ([3H]-CP-55,940 displacement, HEK cell membranes). As to conditions: displacement of radioligand [3H]-CP-55,940. It counts as binding. The protocol:
(§1) The affinity of the compounds of the invention for cannabinoid receptors was determined using membrane preparations of human embryonic kidney (HEK) cells in which the human CB1 receptor is transiently transfected using a Semliki Forest Virus system in conjunction with [3H]-CP-55,940 as radioligand. After incubation of freshly prepared cell membrane preparation with the [^3H]-ligand, with or without addition of compounds of the invention, separation of bound and free ligand was performed by filtration over glass fiber filters. Radioactivity on the filter was measured by scintillation counting.
(§2) The ability of the compounds to displace the radioligand [^3H]-CP-55,940 was measured at a concentration of 10 μM and values provided as [% inhibition @ 10 μM] both for the CB1 and CB2 receptor assay, The lower % inhibition is, the lower the likelihood of side effects based on CB1 or CB2 receptor inhibition is.

For assay [3], the target named is T2, human CB2 receptor (Homo sapiens, UniProt P34972).
T2 construct: expressed in transfected cells; host or cells: human embryonic kidney (HEK) cells, Semliki Forest Virus system, membrane preparations
T2 sequence (P34972 whole entry): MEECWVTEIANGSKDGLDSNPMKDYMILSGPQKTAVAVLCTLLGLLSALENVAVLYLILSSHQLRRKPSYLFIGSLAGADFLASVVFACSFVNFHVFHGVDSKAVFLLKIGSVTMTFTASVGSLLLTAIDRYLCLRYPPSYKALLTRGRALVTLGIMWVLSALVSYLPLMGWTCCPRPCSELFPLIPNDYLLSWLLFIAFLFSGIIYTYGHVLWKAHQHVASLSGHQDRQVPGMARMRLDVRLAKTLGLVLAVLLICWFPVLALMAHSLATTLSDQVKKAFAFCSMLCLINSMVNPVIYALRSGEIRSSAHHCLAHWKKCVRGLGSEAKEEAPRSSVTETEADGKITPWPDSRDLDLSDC
Put plainly: CB2 receptor affinity ([3H]-CP-55,940 displacement, HEK cell membranes). The class given is binding. As to conditions: displacement of radioligand [3H]-CP-55,940. Here is the method: as §1, with “cannabinoid CB2” for “cannabinoid”, “CB2” for “CB1”, “[^3H]-CP-55,940” for “[3H]-CP-55,940”
as §2

Structures are written as SMILES. pEC50: −log10 of the molar value.

What is called inhibition is the change of the read-out against control, counted positive when it falls. As for `Cc1cnccc1C(=O)Nc1cnc(OCC(F)(F)F)c(-c2ccc(Cl)cc2)c1` [Example 18, N-[5-(4-chloro-phenyl)-6-(2,2,2-trifluoro-ethoxy)-pyridin-3-yl]-3-methyl-4-pyridinecarboxylic acid amide], in assay [1], the “% increase of ABCA1 at 3 μM” value is listed as above 45% @ 3 μM. The inhibition at 10 µM in assay [2] is 37%; in assay [3], 3%.
As a reminder, the pEC50 is the EC50 on a negative log10 scale, so that one unit is a factor of ten. Read a low pEC50 as a large EC50. With `O=C(Nc1cnc(OCC(F)(F)F)c(-c2ccc(Cl)cc2)c1)c1cncnc1` [Example 19, 5-pyrimidinecarboxylic acid[5-(4-chloro-phenyl)-6-(2,2,2-trifluoro-ethoxy)-pyridin-3-yl]-amide], the pEC50 in assay [1] is 5.86. The inhibition at 10 µM was 25% in assay [2] and -10% in assay [3].
The like results for `Cn1nccc1C(=O)Nc1cnc(OCC(F)(F)F)c(-c2ccc(Cl)cc2)c1` [Example 20, 1-methyl-1H-pyrazole-5-carboxylic acid[5-(4-chloro-phenyl)-6-(2,2,2-trifluoro-ethoxy)-pyridin-3-yl]-amide] were, in that order, 5.19, 34% and 9%.
For `Cc1nc(C)c(C(=O)Nc2cnc(OCC(F)(F)F)c(-c3ccc(Cl)cc3)c2)o1` [Example 21, 2,4-dimethyl-5-oxazolecarboxylic acid[5-(4-chloro-phenyl)-6-(2,2,2-trifluoro-ethoxy)-pyridin-3-yl]-amide], in that order: 5.86, 29% and 1%.
With `O=C(Nc1cnc(OCC(F)(F)F)c(-c2ccc(Cl)cc2)c1)c1ccns1` [Example 22, 5-isothiazolecarboxylic acid[5-(4-chloro-phenyl)-6-(2,2,2-trifluoro-ethoxy)-pyridin-3-yl]-amide], in assay [1], the “% increase of ABCA1 at 3 μM” value is above 45% @ 3 μM. Besides, the inhibition at 10 µM was determined as 45% in assay [2] and 8% in assay [3].
For the compound `Cc1cc(C(=O)Nc2cnc(OCC(F)(F)F)c(-c3ccc(Cl)cc3)c2)n[nH]1` [Example 23, 5-methyl-1H-pyrazole-3-carboxylic acid[5-(4-chloro-phenyl)-6-(2,2,2-trifluoro-ethoxy)-pyridin-3-yl]-amide], the pEC50 in assay [1] was 6.14. Besides, the inhibition at 10 µM in assay [2] is 12%; in assay [3] it was -8%.
For `O=C(Nc1cnc(OCC(F)(F)F)c(-c2ccc(Cl)cc2)c1)c1cc[nH]n1` [Example 24, 1H-pyrazole-3-carboxylic acid[5-(4-chloro-phenyl)-6-(2,2,2-trifluoro-ethoxy)-pyridin-3-yl]-amide], in that order: 5.64, 25% and -1%.
For `Cc1cc(C(=O)Nc2cnc(OCC(F)(F)F)c(-c3ccc(Cl)cc3)c2)ccn1` [Example 25, N-[5-(4-chloro-phenyl)-6-(2,2,2-trifluoro-ethoxy)-pyridin-3-yl]-2-methyl-4-pyridinecarboxylic acid amide], in that order: 5.58, 25% and -1%.
In the case of `Cc1cnc(C(=O)Nc2cnc(OCC(F)(F)F)c(-c3ccc(Cl)cc3)c2)s1` [Example 26, 5-methyl-2-thiazole-carboxylic acid[5-(4-chloro-phenyl)-6-(2,2,2-trifluoro-ethoxy)-pyridin-3-yl]-amide], in assay [1], the “% increase of ABCA1 at 3 μM” value is reported as above 45% @ 3 μM. Besides, the inhibition at 10 µM stood at 37% in assay [2] and 11% in assay [3].
Take `Cc1nnsc1C(=O)Nc1cnc(OCC(F)(F)F)c(-c2ccc(Cl)cc2)c1` [Example 27, 4-methyl-1,2,3-thiadiazole-5-carboxylic acid[5-(4-chloro-phenyl)-6-(2,2,2-trifluoro-ethoxy)-pyridin-3-yl]-amide]: the “% increase of ABCA1 at 3 μM” value in assay [1] is above 45% @ 3 μM. Also, the inhibition at 10 µM in assay [2] was 47%; in assay [3], 10%.
Take `Cc1ccc(C(=O)Nc2cnc(OCC(F)(F)F)c(-c3ccc(Cl)cc3)c2)cn1` [Example 28, N-[5-(4-chloro-phenyl)-6-(2,2,2-trifluoro-ethoxy)-pyridin-3-yl]-6-methyl-3-pyridinecarboxylic acid amide]: the “% increase of ABCA1 at 3 μM” value in assay [1] is given as above 45% @ 3 μM. Besides, the results for the inhibition at 10 µM in assay [2] and in assay [3] were 36% and -6%, respectively.
The like results for `Cc1ncccc1C(=O)Nc1cnc(OCC(F)(F)F)c(-c2ccc(Cl)cc2)c1` [Example 29, N-[5-(4-chloro-phenyl)-6-(2,2,2-trifluoro-ethoxy)-pyridin-3-yl]-2-methyl-3-pyridinecarboxylic acid amide] were, in that order, above 45% @ 3 μM, 41% and 19%.
The compound `O=C(Nc1cnc(OCC(F)(F)F)c(-c2ccc(Cl)cc2)c1)c1ccno1` [Example 30, 5-isoxazolecarboxylic acid[5-(4-chloro-phenyl)-6-(2,2,2-trifluoro-ethoxy)-pyridin-3-yl]-amide] showed a pEC50 in assay [1] of 5.41. The inhibition at 10 µM in assay [2] was 27%; in assay [3], -4%.
`Cc1noc(C)c1C(=O)Nc1cnc(OCC(F)(F)F)c(-c2ccc(Cl)cc2)c1` [Example 31, 3,5-dimethyl-4-isoxazolecarboxylic acid[5-(4-chloro-phenyl)-6-(2,2,2-trifluoro-ethoxy)-pyridin-3-yl]-amide]: the “% increase of ABCA1 at 3 μM” value in assay [1] is reported as above 45% @ 3 μM. Further, the inhibition at 10 µM in assay [2] was determined as 44%; in assay [3], 7%.
For `O=C(Nc1cnc(OCC(F)(F)F)c(-c2ccc(Cl)cc2)c1)c1ccnc(O)c1` [Example 32, N-[5-(4-chloro-phenyl)-6-(2,2,2-trifluoro-ethoxy)-pyridin-3-yl]-1,2-dihydro-2-oxo-4-pyridinecarboxylic acid amide], in assay [1], the pEC50 was 6.00. The inhibition at 10 µM in assay [2] was found to be 21%; in assay [3], 0.9%.
Regarding `Cc1nn(C)cc1C(=O)Nc1cnc(OCC(F)(F)F)c(-c2ccc(Cl)cc2)c1` [Example 33, 1,3-dimethyl-1H-pyrazole-4-carboxylic acid[5-(4-chloro-phenyl)-6-(2,2,2-trifluoro-ethoxy)-pyridin-3-yl]-amide], in assay [1], the “% increase of ABCA1 at 3 μM” value is above 45% @ 3 μM. The results for the inhibition at 10 µM in assay [2] and in assay [3] were 22% and -2%, respectively.
As for `O=C(Nc1cnc(OCC(F)(F)F)c(-c2ccc(Cl)cc2)c1)c1ccncn1` [Example 34, 4-pyrimidinecarboxylic acid[5-(4-chloro-phenyl)-6-(2,2,2-trifluoro-ethoxy)-pyridin-3-yl]-amide], in assay [1], the pEC50 is 5.62. Also, the inhibition at 10 µM was determined as 31% in assay [2] and 10% in assay [3].
For the compound `O=C(Nc1cnc(OCC(F)(F)F)c(-c2ccc(Cl)cc2)c1)c1nccs1` [Example 35, 2-thiazolecarboxylic acid[5-(4-chloro-phenyl)-6-(2,2,2-trifluoro-ethoxy)-pyridin-3-yl]-amide], in assay [1], the “% increase of ABCA1 at 3 μM” value was above 45% @ 3 μM. The values for the inhibition at 10 µM in assay [2] and in assay [3] were 18% and -3%, respectively.
